Results from patent US20070293486A1, “Alpha-Keto Carbonyl Calpain Inhibitors” (SANTHERA PHARMACEUTICALS (SCHWEIZ) AG, priority 2004, published 2007).

How the values were obtained:
human μ-calpain = target: T1, human μ-calpain (Homo sapiens, UniProt P07384); test: Enzymatic Calpain Inhibition Assay; assay type: biochemical; conditions: enzymatic calpain I inhibition; read-out: Calp I IC50
T1 construct: purchased Calbiochem
T1 sequence (P07384 1-714): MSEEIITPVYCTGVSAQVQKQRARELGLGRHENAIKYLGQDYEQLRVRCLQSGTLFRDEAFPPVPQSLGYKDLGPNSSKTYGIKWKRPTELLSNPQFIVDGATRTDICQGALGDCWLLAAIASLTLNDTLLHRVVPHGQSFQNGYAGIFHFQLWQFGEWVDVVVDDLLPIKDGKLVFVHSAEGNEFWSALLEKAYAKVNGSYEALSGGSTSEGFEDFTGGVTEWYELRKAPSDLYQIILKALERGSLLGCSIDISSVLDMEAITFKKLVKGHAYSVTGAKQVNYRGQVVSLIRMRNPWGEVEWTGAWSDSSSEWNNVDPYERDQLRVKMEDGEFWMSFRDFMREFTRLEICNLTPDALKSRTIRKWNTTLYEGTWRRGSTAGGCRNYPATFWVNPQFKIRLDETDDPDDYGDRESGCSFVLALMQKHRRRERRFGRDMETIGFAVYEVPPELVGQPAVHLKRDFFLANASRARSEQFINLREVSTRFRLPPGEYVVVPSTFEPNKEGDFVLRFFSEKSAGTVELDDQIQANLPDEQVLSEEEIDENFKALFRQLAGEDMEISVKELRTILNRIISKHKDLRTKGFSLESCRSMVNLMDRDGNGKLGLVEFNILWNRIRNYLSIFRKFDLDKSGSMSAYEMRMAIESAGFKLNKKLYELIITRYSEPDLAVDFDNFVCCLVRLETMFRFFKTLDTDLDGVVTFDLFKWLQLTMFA
T1 sequence (P04632 1-268 partner): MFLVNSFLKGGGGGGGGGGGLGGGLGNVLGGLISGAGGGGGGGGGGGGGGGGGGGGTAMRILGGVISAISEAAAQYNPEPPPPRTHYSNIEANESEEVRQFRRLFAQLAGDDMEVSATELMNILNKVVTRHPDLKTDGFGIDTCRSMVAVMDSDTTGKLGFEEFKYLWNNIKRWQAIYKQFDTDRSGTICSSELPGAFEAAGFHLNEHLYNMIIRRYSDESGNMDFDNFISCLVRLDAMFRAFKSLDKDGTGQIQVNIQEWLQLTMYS
Experimental: The Ki value was also determined in some cases. These criteria were used to measure the inhibitory effect of the compounds (I) on calpain I, calpain II and cathepsin B.
The inhibitory properties of calpain inhibitors are tested in 100 μl of a buffer containing 100 mM imidazole pH 7.5, 5 mM L-Cystein-HCl, 5 mM CaCl2, 250 μM of the calpain fluorogenic substrate Suc-Leu-Tyr-AMC (Sigma) (Sasaki et al., J. Biol. Chem., 1984, 259, 12489-12949) dissolved in 2.5 μl DMSO and 0.5 μg of human μ-calpain (Calbiochem). The inhibitors dissolved in 1 μl DMSO are added to the reaction buffer. The fluorescence of the cleavage product 7-amino-4-methylcoumarin (AMC) is followed in a SPECTRAmax GEMINI XS (Molecular Device) fluorimeter at λex=360 nm and λem=440 nm at 30° C. during 30 min at intervals of 30 sec in 96-well plates (Greiner). The initial reaction velocity at different inhibitor concentrations is plotted against the inhibitor concentration and the IC50 values determined graphically.

[1] = test system: cellular calpains in C2C12 myoblasts; test: Calpain Inhibition Assay in C2C12 Myoblasts; assay type: cell-based; conditions: read-out: Calp I IC50 Myoblast
Experimental: This assay is aimed at monitoring the ability of the substance to inhibit cellular calpains. C2C12 myoblasts are grown in 96-well plates in growth medium (DMEM, 20% foetal calf serum) until they reach confluency. The growth medium is then replaced by fusion medium (DMEM, 5% horse serum). 24 hours later the fusion medium is replaced by fusion medium containing the test substances dissolved in 1 μl DMSO. After 2 hours of incubation at 37° C. the cells are loaded with the calpain fluorogenic substrate Suc-Leu-Tyr-AMC at 400 μM in 50 μl of a reaction buffer containing 135 mM NaCl; 5 mM KCl; 4 mM CaCl2; 1 mM MgCl2; 10 mM Glucose; 10 mM HEPES pH 7.25 for 20 min at room temperature. The calcium influx, necessary to activate the cellular calpains, is evoked by the addition of 50 μl reaction buffer containing 20 μM of the calcium ionophore Br-A-23187 (Molecular Probes). The fluorescence of the cleavage product AMC is measured as described above during 60 min at 37° C. at intervals of 1 min. The IC50 values are determined as described above. Comparison of the IC50 determined in the enzymatic calpain inhibition assay to the IC50 determined in the C2C12 myoblasts calpain inhibition assay, allows to evaluate the cellular uptake or the membrane permeability of the substance.

[2] = test system: utrophin protein levels in human DMD myotubes; test: Utrophin Expression Assay in Human Myotubes; assay type: cell-based; conditions: 50 nM test compound
Experimental: Utrophin induction was determined by a method which was similar to a method of 1. Courdier-Fruh et al., Neuromuscular Disord., 2002, 12, S95-S104. Primary human muscle cell cultures were prepared from muscle biopsies taken during orthopedic surgery from Duchenne patients (provided by the Association Francaise contre les Myopathies). Cultures were prepared and maintained according to standard protocols. Induction of utrophin expression in human DMD myotubes was assayed at 50 nM or 500 nM of test compound added in differentiation medium. Normalized utrophin protein levels are determined after 56 d of incubation by cell-based ELISA with a mouse monoclonal antibody to the aminoterminal portion of utrophin (NCL-DRP2, Novocastra Laboratories). For calibration, the cell density and differentiation was determined by absorbance measurements of the total dehydrogenase enzyme activity in each well using the calorimetric CellTiter 96®AQ One Solution Reagent Proliferation Assay (Promega) according to the manufacturer's recommendation. Subsequently, cells were fixed, washed, permeabilized with 0.5% (v/v) Triton X-100 and unspecific antibody binding-sites blocked by standard procedures. Utrophin protein levels were determined immunologically with utrophin-specific primary antibody and with an appropriate peroxidase-coupled secondary antibody (Jackson ImmunoResearch Laboratories) using QuantaBlu™ Fluorogenic Peroxidase Substrate Kit (Pierce) for detection. Fluorescence measurements were carried out with a multilabel counter (Wallac) at λex=355 nm and at λem=460 nm. The primary readout of this signal is presented in arbitrary units. For calibration, the arbitrary units representing the relative utrophin protein content of each well was divided by the corresponding cell-titer absorbance value to correct for cell density. For comparison between experiments, the cell-titer corrected readout for utrophin protein content in each well was expressed in percent of solvent treated control cultures (set to 100%), i.e. data are % utrophin protein levels compared to DMSO solvent (N=4).

20S Proteasome = target: T2, 20S Proteasome (Oryctolagus cuniculus, UniProt G1T4Q9); test: 20S Proteasome Assay; assay type: biochemical; conditions: Rabbit, read-out: 20S Prot IC50
T2 sequence (G1T4Q9 1-263): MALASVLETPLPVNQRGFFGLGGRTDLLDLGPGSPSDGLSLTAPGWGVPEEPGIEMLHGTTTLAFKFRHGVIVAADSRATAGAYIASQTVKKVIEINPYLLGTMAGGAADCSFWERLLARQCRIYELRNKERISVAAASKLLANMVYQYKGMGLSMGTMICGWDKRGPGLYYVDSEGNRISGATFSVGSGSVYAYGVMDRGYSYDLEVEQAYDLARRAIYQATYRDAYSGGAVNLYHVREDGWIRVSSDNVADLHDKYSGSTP
Experimental: 25 μl of a reaction buffer containing 400 μM of the fluorogenic substrate Suc-Leu-Leu-Val-Tyr-AMC (Bachem) are dispensed per well of a white microtiter plate. Test compounds dissolved in 0.5 μl DMSO are added. To start the reaction; 25 μl of reaction buffer containing 35 ng of enzyme (20S Proteasome, Rabbit, Calbiochem) are added. The increase in fluorescence (excitation at 360 nm; emission at 440 nm) is measured over 30 min at 30° C. at 30″. The IC50's are then determined from the slopes.

[3] = test system: experimental muscular dystrophy in hamster; conditions: Journal of Pharmacobiodynamics, 1987, 10, 678; cited from earlier work

IC50 (human μ-calpain) [nM]	IC50 [1] [nM]	melting point [°C]	IC50 (20S Proteasome) [nM]	Compound	UTR Induction @50 nM [2] [%]	life-prolonging effect in experimental muscular dystrophy [3]
45	200			CCNC(=O)C(=O)[C@H](Cc1ccc(Cl)cc1)NC(=O)[C@@H](NC(=O)[C@H](Cc1ccccc1)NC(=O)CCCCC1CCSS1)C(C)C (stereo partly shown) [Example 1]		
16	28	190 to 192	10	CCNC(=O)C(=O)C(Cc1ccc(OC)cc1)NC(=O)C(NC(=O)C(Cc1csc2ccccc12)NC(=O)CCCCC1CCS[S+]1[O-])C(C)C (stereo not shown) [Example 606]	151	
35	20	220	27	CCNC(=O)C(=O)C(Cc1ccccc1)NC(=O)C(NC(=O)C(Cc1cccc2ccccc12)NC(=O)CCCCC1CCSS1)C(C)C (stereo not shown) [Example 735]	134	
				CCOC(=O)[C@H]1O[C@@H]1C(=O)N[C@@H](CC(C)C)C(=O)NCCC(C)C [Example E-64-d]		life-prolonging effect
